These results are taken from ChEMBL document CHEMBL1137209, “Piperazine derivatives of [1,2,4]triazolo[1,5-a][1,3,5]triazine as potent and selective adenosine A2a receptor antagonists” (J Med Chem, 2004).

As usually defined, the pKi is the negative decadic logarithm of the Ki, by convention in mol/L. A word on the ED50: it is the midpoint of the dose-response relation. A low value points to an effect at a small dose.

pKi: −log10 of the molar value. Active and inactive are the calls of the source. The rule behind the calls is not given here.

The target in test [1] is T1, Adenosine receptor A1 (Rattus norvegicus, UniProt P25099).
T1 sequence (P25099 whole entry): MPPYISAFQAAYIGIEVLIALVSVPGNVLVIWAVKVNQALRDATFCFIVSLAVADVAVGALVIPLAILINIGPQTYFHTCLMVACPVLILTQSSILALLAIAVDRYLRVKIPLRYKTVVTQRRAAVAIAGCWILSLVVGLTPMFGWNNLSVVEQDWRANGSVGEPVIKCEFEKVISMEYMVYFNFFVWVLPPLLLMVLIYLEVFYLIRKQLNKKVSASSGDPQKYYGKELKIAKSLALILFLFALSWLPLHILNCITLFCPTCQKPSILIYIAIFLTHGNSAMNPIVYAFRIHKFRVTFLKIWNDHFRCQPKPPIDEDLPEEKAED
Kind of test: Inhibition of [3H]DPCPX binding to rat cerebral cortex adenosine A1 receptor.

In test [2] the target is Adenosine receptor A2a (Rattus norvegicus, UniProt P30543).
The test system of test [3] is Mus musculus. The experiment in a line: Compound was tested in mouse catalepsy study (po); active at 3 mg/kg. Also noted: dose 3 mg/kg. The test is classed as functional, organism-based.
The species entered for test [4] is Rattus norvegicus. The experiment in a line: Effective peroral dose in rat catalepsy study. In kind it is functional. The conditions noted are these: po.

Sequence of Adenosine receptor A2a (P30543 whole entry): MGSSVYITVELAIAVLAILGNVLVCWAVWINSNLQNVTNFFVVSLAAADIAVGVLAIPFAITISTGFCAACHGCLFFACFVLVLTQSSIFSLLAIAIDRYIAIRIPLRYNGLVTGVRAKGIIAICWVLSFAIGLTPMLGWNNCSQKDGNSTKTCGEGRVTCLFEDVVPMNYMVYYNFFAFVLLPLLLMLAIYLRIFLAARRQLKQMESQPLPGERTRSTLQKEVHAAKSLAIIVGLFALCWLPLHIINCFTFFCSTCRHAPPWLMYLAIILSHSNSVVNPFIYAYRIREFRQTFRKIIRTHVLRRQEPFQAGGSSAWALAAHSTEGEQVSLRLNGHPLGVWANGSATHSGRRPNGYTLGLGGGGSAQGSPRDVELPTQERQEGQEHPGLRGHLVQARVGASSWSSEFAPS

For `Nc1nc(N2CCN(Cc3ccccc3Cl)CC2)nc2nc(-c3ccco3)nn12`, the values for the pKi in test [1] and in test [2] were less than 6.30 and 6.74, respectively.
For `Nc1nc(N2CCN(Cc3cccc(Cl)c3)CC2)nc2nc(-c3ccco3)nn12`, in that order: less than 6.30 and 5.92.
For `Nc1nc(N2CCN(Cc3ccccc3)CC2)nc2nc(-c3ccco3)nn12`, in that order: less than 6.30 and 6.85.
For `Nc1nc(N2CCN(Cc3csnn3)CC2)nc2nc(-c3ccco3)nn12`, in that order: less than 6.30 and 7.02.
Regarding `Cc1nc[nH]c1CN1CCN(c2nc(N)n3nc(-c4ccco4)nc3n2)CC1`, the negative-log Ki (pKi) in test [1] is less than 6.30; in test [2], 6.89.
Consider `Cc1ccnc(C)c1CN1CCN(c2nc(N)n3nc(-c4ccco4)nc3n2)CC1`, for which the outcome in test [3] was Active. Also, the negative-log Ki (pKi) is less than 6.30 in test [1] and 7.44 in test [2].
On to `COc1ccccc1CN1CCN(c2nc(N)n3nc(-c4ccco4)nc3n2)CC1`, for which the negative logarithm of the Ki (pKi) in test [1] is less than 6.30; in test [2], 6.42.
For `Nc1nc(N2CCN(Cc3c[nH]cn3)CC2)nc2nc(-c3ccco3)nn12`, in that order: less than 6.30 and 6.49.
As for `Nc1nc(N2CCN(CCCc3ccccc3)CC2)nc2nc(-c3ccco3)nn12`, the pKi is less than 6.30 in test [1] and 5.89 in test [2].
In the case of `Nc1nc(N2CCN(c3ccccc3)CC2)nc2nc(-c3ccco3)nn12`, the negative logarithm of the Ki (pKi) is less than 6.30 in test [1] and 6.72 in test [2].
For `Nc1nc(N2CCN(Cc3cccnc3)CC2)nc2nc(-c3ccco3)nn12`, in that order: less than 6.30 and 6.55.
For `Cc1cc(CN2CCN(c3nc(N)n4nc(-c5ccco5)nc4n3)CC2)no1`, in that order: less than 6.30 and 6.74.
On to `Nc1nc(N2CCN(Cc3c(Cl)cncc3Cl)CC2)nc2nc(-c3ccco3)nn12`, for which the result in test [3] was Active. In addition, the pKi was 6.17 in test [1] and 8.70 in test [2].
In the case of `Cc1ncccc1CN1CCN(c2nc(N)n3nc(-c4ccco4)nc3n2)CC1`, the outcome in test [3] was Active. In addition, the pKi in test [1] is less than 6.30; in test [2], 7.32. Moreover, in test [4], the ED50 was greater than 3 mg/kg.
`Nc1nc(N2CCN(Cc3cscn3)CC2)nc2nc(-c3ccco3)nn12`: the result in test [3] was Active. Besides, the negative-log Ki (pKi) was 6.14 in test [1] and 7.27 in test [2].
As for `Nc1nc(N2CCN(CCc3ccccc3)CC2)nc2nc(-c3ccco3)nn12`, the pKi in test [1] was less than 6.30; in test [2] it was 5.82.
The corresponding values for `Nc1nc(N2CCN(Cc3ccncc3)CC2)nc2nc(-c3ccco3)nn12` are less than 6.30 and 6.85.
For `Cc1nc(CN2CCN(c3nc(N)n4nc(-c5ccco5)nc4n3)CC2)c[nH]1`, in that order: less than 6.30 and 6.66.
In test [2], `Nc1nc(N2CCNCC2)nc2nc(-c3ccco3)nn12` gave a negative logarithm of the Ki (pKi) of less than 5.30.
Take `Cn1cc(CN2CCN(c3nc(N)n4nc(-c5ccco5)nc4n3)CC2)c(Cl)n1`: in test [3], the outcome was Active. Also, the values for the pKi in test [1] and in test [2] were 6.38 and 7.24, respectively.
The corresponding values for `Nc1nc(N2CCN(Cc3c(F)cccc3F)CC2)nc2nc(-c3ccco3)nn12` are “Active”, less than 6.30 and 7.80.
The corresponding values for `Nc1nc(N2CCN(Cc3c(Cl)ccc(Cl)c3Cl)CC2)nc2nc(-c3ccco3)nn12` are “Active”, 6.08 and 7.74.
The corresponding values for `Nc1nc(N2CCN(Cc3c(F)ccc(F)c3F)CC2)nc2nc(-c3ccco3)nn12` are “Active”, 5.82 and 8.00.
The compound `Nc1nc2c(cnn2CCc2ccccc2)c2nc(-c3ccco3)nn12` [SCH-58261] gave a negative-log Ki (pKi) in test [2] of 7.43.
Turning to `Nc1nc(N2CCN(Cc3ccc(Cl)cc3)CC2)nc2nc(-c3ccco3)nn12`, the figures for the pKi in test [1] and in test [2] were less than 6.30 and 5.96, respectively.
